# According to patent publication US5908787A, “Total protein detection method” (Bayer Corporation, priority 1997, dated 1999):
# Test system: protein
# Assay: Ka, affinity of secondary dye for protein
# Assay type: binding
# Conditions: not given
# Description: The phenolsulfonephthalein protein error indicators are used in conjunction with the molybdate or tungstate salt assay for protein in which a fluid test sample is combined with a molybdate or tungstate salt and a dye which forms a complex therewith whose absorption band is shifted in the presence of protein. As is disclosed in U.S. Pat. No. 5,399,498; tungstate reacts with the indicator to form a complex whose color shifts in the presence of protein in a manner similar to that of molybdenum. This patent also discloses the use of phytic acid or derivatives thereof to reduce background interference in this sort of assay. […] This method is a total protein assay since the response is not dependent on the type of protein present in the test sample. […] Since total protein assays are useful in the detection of certain disease states, and the higher the total protein spillover into urine the more serious the potential problem, a total protein assay which provides a detectable response at high protein concentrations is desirable.
row,SMILES,affinity for protein (in words)
1,"O=[N+]([O-])c1cc(C2(c3cc(I)c(O)c([N+](=O)[O-])c3)OS(=O)(=O)c3c(Br)c(Br)c(Br)c(Br)c32)cc(I)c1O [Secondary dye 5, 5',5""-Dinitro-3',3""-Diiodo-3,4,5,6-Tetrabromophenolsulfonephthalein]",too high an affinity for proteins

# Test system: not listed separately
# Assay: pKa of secondary dye
# Assay type: physicochemical
# Conditions: second pKa of the dye
# Description: Structure A represents the general structure of phenolsulfonephthalein derivatives in protic solvents such as water or an alcohol while structure B represents the form that predominates in the dry state or in aprotic solvents such as ethers and acetonitrile. The phenolsulfonephthalein error indicators are pH indicators which include an ionizable proton having a pKa value such that the proton is displaced by the presence of protein. The pKa value of a phenolsulfonephthalein indicator is the pH at which one half of the number of indicator molecules include the deprotonated C ring phenolic hydroxyl group. In the case of the phenolsulfonephthalein protein error indicators illustrated above, two deprotonation events occur in order to cause an observable color change. The first deprotonation removes the proton from the aryl sulfonic acid on the A ring to yield the ion illustrated below as formula C: [drawing 2]
# The pKa of this proton is less than one, resulting in the ionization of this moiety at all useful pH values. This ionizable group is also responsible for the aqueous solubility of these compounds. The second deprotonation involves the release of a proton from the C ring phenolic hydroxyl to yield the dianion. With this type of protein error indicator, the second deprotonization causes the observable color change which is indicative of the presence of protein in the sample being tested. The phenolsulfonephthalein protein error indicator is typically applied to an absorbent matrix material along with a buffer to provide an environment of constant pH, so that one can rely on the color change being the result of the presence of protein rather than the result of a pH change upon contact with the test fluid.
row,SMILES,pKa
1,"O=S1(=O)OC(c2cc(Br)c(O)c(Br)c2)(c2cc(Br)c(O)c(Br)c2)c2ccccc21 [Secondary dye 1, Bromophenol blue]",3.7
2,"O=S1(=O)OC(c2cc(Br)c(O)c(Br)c2)(c2cc(Br)c(O)c(Br)c2)c2c(Br)c(Br)c(Br)c(Br)c21 [Secondary dye 2, Tetrabromophenol blue]",3.5
3,"O=S1(=O)OC(c2cc(Cl)c(O)c(Br)c2)(c2cc(Cl)c(O)c(Br)c2)c2ccccc21 [Secondary dye 3, Bromochlorophenol blue]",3.8
4,"O=S1(=O)OC(c2cc(I)c(O)c(I)c2)(c2cc(I)c(O)c(I)c2)c2ccccc21 [Secondary dye 4, Tetraiodophenolsulfonephthalein]",4.0
5,"O=[N+]([O-])c1cc(C2(c3cc(I)c(O)c([N+](=O)[O-])c3)OS(=O)(=O)c3c(Br)c(Br)c(Br)c(Br)c32)cc(I)c1O [Secondary dye 5, 5',5""-Dinitro-3',3""-Diiodo-3,4,5,6-Tetrabromophenolsulfonephthalein]",1.5
6,"O=[N+]([O-])c1cc(C2(c3cc(Br)c(O)c([N+](=O)[O-])c3)OS(=O)(=O)c3c(Br)c(Br)c(Br)c(Br)c32)cc(Br)c1O [Secondary dye 6, 5',5""-Dinitro-3',3"",3,4,5,6-hexabromophenolsulfonephthalein]",1.6
7,"O=[N+]([O-])c1cc(C2(c3cc(Br)c(O)c(I)c3)OS(=O)(=O)c3c(Br)c(Br)c(Br)c(Br)c32)cc(Br)c1O (centres unmarked) [Secondary dye 7, 5'-Nitro-5''-Iodo-3',3""3,4,5,6-hexabromophenolsulfonephthalein]",1.6
